Data set [1] has as its system ES2/Fluc tumors. In words: Sindbis+CPT-11 ES2/Fluc tumor survival experiment. The format is in vivo, Es1^c/SCID mice. The following applies: untreated mice survived about 4 weeks; i.p. treatment 4 times a week for 5 weeks from day 5. As to the method:
FIGS. 1A and 1B: Survival of tumor-bearing mice treated with Sindbis+CPT-11. (A) Mice were injected with 1.5×10^6 ES2/Fluc cells on day 0. Mice were then divided into 4 groups of 10. Treatment started on day 5, and lasted for 5 weeks, in which mice were treated 4 times a week. Mice treated with Sindbis/LacZ received I.P. injection of ˜10^7 plaque-forming units of the vector in 0.5 mL OptiMEM; mice treated with CPT-11 received I.P. injections of 15 mg/kg body weight of the recipient of CPT-11 in […]. Mice treated with the combined treatments were treated with Sindbis/LacZ and CPT-11 on the same day (Sindbis/LacZ in the morning, and CPT-11 in the evening). […] The experiment was repeated twice (for a total of 20 mice per group), and the results were combined into one graph. (B) Tumor load in mice treated with Sindbis/LacZ+CPT-11. On day 4 after injecting the mice with 10 million ES2/Fluc cells, tumors developed in various IP locations (top). […]
C.B-17 SCID mice (Taconic, Germantown, N.Y.) were bred with a plasma esterase deficient mouse model—Es1^c Foxn1^nu/J (Jackson laboratory, Bar Harbor, Me.). […] Briefly, blood was collected from F2 mice, and was tested by FACS analysis to determine T and B cell levels, and the plasma esterase activity was measured using a nitrophenyl acetate assay (Spectrum, Gardena, Calif.). […]

The subject of data set [2] is luciferase-expressing Mia Paca cells. In words: Mia Paca pancreatic cancer model, Sindbis vectors with and without CPT-11. The note with it: treated 4 times a week for 2 weeks; images since day 18. The format is in vivo, Es1/SCID mice. How it is done:
FIG. 3 is a graph showing the effect of Sindbis virus vectors with and without CPT-11 treatment on pancreatic cancer in Mia Paca mice, a model for pancreatic cancer.
Female Es1/SCID mice were inoculated intraperitoneally with 5 million luciferase-expressing Mia Paca cells (a model for pancreatic cancer) on day 0. Mice were then divided into 4 groups: Mock (untreated), Sindbis/LacZ treated, CPT-11 treated, and Sindbis/LacZ+CPT-11 treated. The mice were treated 4 times a week, for 2 weeks, and then the treatment was stopped.

The next data set deals with s.c. N2a tumors. In words: s.c. N2a neuroblastoma model: vascular leakiness, vector transduction, tumor growth. The format is in vivo, SCID mice. The note with it: for tumor vascular permeability / leakiness (AngioSense signals): metronomic i.p. Paclitaxel 16 mg/Kg or Cisplatin 4 mg/Kg. The text has this:
FIG. 7A-7D. […] We used 1:1 RD-Sindbis/LacZ:RC-Sindbis/Fluc mixture as a control. AngioSense® 750 (0.66 nmol) was i.v. injected on day 1. […] B, quantitative presentation of luciferase signals in tumors. C and D, quantitative presentation of AngioSense® signals of tumors receiving indicated treatments.
A, relative growth curves of s.c. N2a tumors treated with Paclitaxel alone (Taxol®) or untreated (Ctrl). B, relative tumor growth curves of different treatment groups as in FIG. 5.
FIG. 9A-9C. […] Starting on day 0, daily treatments of Cisplatin (4 mg/Kg or 12 mg/m^2 compared with maximum tolerated dose of 100 mg/m^2 in humans) were i.p. injected into SCID mice bearing s.c. N2a tumors. One last Cisplatin treatment was administrated on day 4. A, to visualize vascular leakiness, AngioSense® 750 (0.66 nmol) was i.v. injected on day 1 and imaged on day 2. B, RC-Sindbis/Fluc was i.v. injected on day 0 and day 2. Luciferase activities in tumors that indicated active vector propagation were monitored on day 3. C, relative tumor growth curves of different treatment groups.
All animal experiments were performed in accordance with NIH and institutional guidelines. BHK cells (1.5×10^6/mouse) were s.c. inoculated into SCID mice (female, 6-8 week old, Taconic, Germantown, N.Y.). The mouse neuroblastoma tumors were induced by s.c. injection of 1.5×10^6 N2a cells into SCID mice 13 days prior to treatments. For better visualization, we remove excessive fur on the skin over the tumor and its surrounding region. The setting for dual mPlum/AngioSense imaging is as following: ex605/em660, 680 and 700 nm, followed by ex745/em800, 820 and 840 nm. Bioluminescent imaging of luciferase activities was performed as described before (7). Tumor sizes were measured using the formula: π/6×length (mm)×width (mm)^2.
In order to test whether chemotherapeutic agents synergize with Sindbis vector in tumor eradication by modulating vascular leakiness, we used a s.c. mouse N2a neuroblastoma model.
We used a replication-competent (RC) Sindbis/Fluc vector (21) instead of an RD one to further enhance the tumor transduction signal output (FIG. 7B) in N2a tumors. RC vector carries a full set of viral structural genes to support its replication. Specific tumor infection of RC vector could result in oncolytic effects by intratumoral vector replication and amplification. […] To ensure temporary expression of VEGF, we used replication defective RD-Sindbis/VEGF mixed with RC-Sindbis/Fluc (1:1).

For data set [3] the following is noted: in human; cited from earlier work.
Data set [4] relates to ES2/Fluc tumors. The data set is described as follows: Sindbis+Taxol ES2/Fluc tumor growth and survival experiment. In kind it is in vivo, SCID mice. As to the method: FIG. 2A-2D: Survival and tumor load in tumor-bearing mice treated with Sindbis+Taxol®. Mice were injected with 4×10^6 ES2/Fluc cells on day 0. Mice were then divided into 4 groups of 9. Mice were treated with Sindbis/LacZ (I.P.) daily from day 1 to day 11, and with Taxol® (0.4 mg/mouse) on day 3, 6 and 10. (B) Quantitative analysis of tumor growth, day 1 tumor load signal was set at 100% for each individual mouse for comparison with later images (day 3, 6, and 10). (C) Mouse survival was monitored. (D) The surviving mice were imaged on day 46 to determine if they have any tumors.
Sindbis+Taxol® ES2/Fluc tumor growth and survival experiment: Female SCID mice (8-12 weeks old) received intraperitoneal injections of 4×10^6 ES2/Fluc cells on day 0, and tumor growth was validated by imaging the mice on day 1. For quantitative analysis of tumor growth, day 1 tumor load signal was set as 100% for each individual mouse for comparison with subsequent images. Mice (nine per group) were treated with Sindbis/LacZ (I.P.) daily from day 1 to day 11, and with Taxol® (0.4 mg/mouse) on day 3, 6 and 10. Mice were imaged on days 1, 3, 6, 10, and 46. A tumor free mouse was used as a negative control.

The next data set deals with cancer cells. In words: Pretreatment of cancer cells with drug, susceptibility to Sindbis vector. The format is cell-based. The following applies: data not shown.
For the next data set, the system named is endothelium cells. The following applies: cited from earlier work.

“Also recorded” adds a separate entry of the source.

As for `CCc1c2c(nc3ccc(OC(=O)N4CCC(N5CCCCC5)CC4)cc13)-c1cc3c(c(=O)n1C2)COC(=O)[C@]3(O)CC` [CPT-11, irinotecan], the “additional survival compared with untreated mice” value in the data set with ES2/Fluc tumors [1] came to 15 days. Also, the “tumor status on images” value in data set [2] was “have tumors that appear to be growing”.
Consider `N.N.[Cl][Pt][Cl]` [Cisplatin], for which the “Sindbis vector delivery and transduction (luciferase signals in tumors)” value with s.c. N2a tumors (RC-Sindbis/Fluc vector) was “enhanced”. In addition, in the data set with s.c. N2a tumors, the “tumor vascular permeability / leakiness (AngioSense signals)” value is “significantly increased; also recorded: enhancement in tumor vascular leakiness”. Besides, the “therapeutic efficacy in combination with Sindbis vectors” value in the data set with s.c. N2a tumors (relative tumor growth curves, FIG. 8B, 9C) is on record as “better therapeutic efficacy”. In data set [3], the maximum tolerated dose is listed as 100 mg/m^2.
Turning to `CC(=O)O[C@H]1C(=O)[C@@]2(C)[C@H]([C@H](OC(=O)c3ccccc3)[C@]3(O)C[C@H](OC(=O)[C@H](O)[C@@H](NC(=O)c4ccccc4)c4ccccc4)C(C)=C1C3(C)C)[C@]1(OC(C)=O)CO[C@@H]1C[C@@H]2O` [Paclitaxel], the “tumor vascular permeability / leakiness (AngioSense signals)” value in the data set with s.c. N2a tumors is given as “significantly increased; also recorded: enhance tumor vascular leakiness”. Besides, the “tumor growth, drug alone” value in the data set with s.c. N2a tumors (relative growth curves, FIG. 8A) is reported as “suppresses tumor growth”. Further, in data set [3], the maximum tolerated dose is 175 mg/m^2. Further, in the data set on ES2/Fluc tumors [4] (IVIS imaging, compared with tumor-free mouse), the “tumor level of survivors on day 46” value is reported as “much higher tumor levels”. Besides, the “tumor load / tumor growth by imaging” value in the data set on ES2/Fluc tumors [4] (days 3, 6 and 10, day 1 signal set at 100%) was “still show tumor growth”. Also, in the data set with ES2/Fluc tumors [4] (nine mice per group, treatment stopped for 35 days), the “mice surviving on day 46” value was “one”. Moreover, in the data set with cancer cells, the “susceptibility of pretreated cancer cells to Sindbis vector” value was “does not enhance”. Also, the “sensitivity of endothelium cells relative to tumor cells, times more sensitive” value in the data set with endothelium cells was 10-100.

Values taken from patent US20160008431A1, “Tumor Therapy With Antitumor Agents In Combination With Sindbis Virus-Based Vectors” (priority 2008, published 2016).
